The text below walks through data of patent US12534706B2, “Method for maturation of retinal tissue containing continuous epithelium” (RIKEN, priority 2017, dated 2026).

Experiment [1] deals with cell aggregate containing a retinal tissue (CRX::Venus knock-in human ES cells). Put plainly: Continuous epithelium rate of retinal tissue after adding a substance to the medium of culture method [B] (day 38 to 56). Type of experiment: cell-based. The settings on record: day 38 to day 54, 55 or 56. The method, then: A cell aggregate containing a retinal tissue was prepared by the method described in “Kuwahara et al. Nat Commun 2015, 19(6), 6286” after modification in part. That is, the aforementioned cultured ES cells were individually dispersed using TrypLE Express (Invitrogen), and the individually dispersed human ES cells were suspended in 100 μL of a serum-free medium in a cell non-adhesive 96 well culture plate (SUMILON spheroid plate, SUMITOMO BAKELITE CO., LTD.) at 9×10^3 cells per well to allow rapid formation of aggregates, after which they were cultured at 37° C., 5% CO2. As the serum-free medium therefor, a serum-free medium obtained by adding 10% KSR, 450 μM 1-monothioglycerol, 1× Chemically defined lipid concentrate, 5 mg/mL BSA, 20 μM Y27632 to a 1:1 mixture of F-12 medium and IMDM medium was used. At 6 days after the start of suspension culture, BMP4 at a final concentration of 1.5 nM was added and suspension culture was continued. A half amount of the culture medium in the well was exchanged with the above-mentioned medium not supplemented with a BMP signal transduction pathway agonist every 3 or 4 days. A cell aggregate containing a retinal tissue at day 18 from the start of suspension culture was cultured in suspension in a serum-free medium containing 3 μM CHIR99021 and 5 μM SU5402 (DMEM/F12 medium supplemented with 1% N2 supplement) for 4 days, namely, until day 22 from the start of suspension culture. Thereafter, suspension culture was continued using the serum-containing medium. The serum-containing medium used then and the culture method are shown in the following [A] to [C]. The suspension culture of the cell aggregate containing the retinal tissue was continued until it was appropriately used for analysis and the like. • [A] From day 22 to day 56 from the start of suspension culture, suspension culture was performed using a medium obtained by adding 10% bovine calf serum, 1% N2 supplement, and 100 μM taurine to the DMEM/F12 medium. • [B] From day 22 to day 38 from the start of suspension culture, suspension culture was performed using a medium obtained by adding 10% bovine calf serum, 1% N2 supplement, and 100 μM taurine to the DMEM/F12 medium; and from day 38 to day 56 from the start of suspension culture, suspension culture was performed using a 1:3 mixed medium of a medium obtained by adding 10% bovine calf serum, 1% N2 supplement, and 100 μM taurine to the DMEM/F12 medium and a medium obtained by adding 10% bovine calf serum, 2% B27 supplement, and 100 μM taurine to the Neurobasal medium. • [C] From day 22 to day 56 from the start of suspension culture, suspension culture was performed using a medium obtained by adding 10% bovine calf serum, 2% B27 supplement, and 100 μM taurine to the Neurobasal medium (manufactured by Thermo Scientific, 21103049).
Thus, among the substances contained in the medium used in the culture method [B] from day 38 to day 56 from the start of suspension culture in the culturing method [B], a substance that may greatly affect cell differentiation, cell protection, and cell death of retinal tissues was added to the medium used in the culture method [A], and whether it contributes to the improvement of continuous epithelium rate was studied. […]

Experiment [2] has the same test system. Briefly: Continuous epithelium rate of retinal tissue after adding a substance to the medium of culture method [A]. The note with it: day 38 to day 54, 55 or 56. Type of experiment: cell-based. On the procedure:
A cell aggregate containing a retinal tissue was prepared by the method described in “Kuwahara et al. Nat Commun 2015, 19(6), 6286” after modification in part. That is, the aforementioned cultured ES cells were individually dispersed using TrypLE Express (Invitrogen), and the individually dispersed human ES cells were suspended in 100 μL of a serum-free medium in a cell non-adhesive 96 well culture plate (SUMILON spheroid plate, SUMITOMO BAKELITE CO., LTD.) at 9×10^3 cells per well to allow rapid formation of aggregates, after which they were cultured at 37° C., 5% CO2. As the serum-free medium therefor, a serum-free medium obtained by adding 10% KSR, 450 μM 1-monothioglycerol, 1× Chemically defined lipid concentrate, 5 mg/mL BSA, 20 μM Y27632 to a 1:1 mixture of F-12 medium and IMDM medium was used. At 6 days after the start of suspension culture, BMP4 at a final concentration of 1.5 nM was added and suspension culture was continued. A half amount of the culture medium in the well was exchanged with the above-mentioned medium not supplemented with a BMP signal transduction pathway agonist every 3 or 4 days. A cell aggregate containing a retinal tissue at day 18 from the start of suspension culture was cultured in suspension in a serum-free medium containing 3 μM CHIR99021 and 5 μM SU5402 (DMEM/F12 medium supplemented with 1% N2 supplement) for 4 days, namely, until day 22 from the start of suspension culture. Thereafter, suspension culture was continued using the serum-containing medium. The serum-containing medium used then and the culture method are shown in the following [A] to [C]. The suspension culture of the cell aggregate containing the retinal tissue was continued until it was appropriately used for analysis and the like. • [A] From day 22 to day 56 from the start of suspension culture, suspension culture was performed using a medium obtained by adding 10% bovine calf serum, 1% N2 supplement, and 100 μM taurine to the DMEM/F12 medium. • [B] From day 22 to day 38 from the start of suspension culture, suspension culture was performed using a medium obtained by adding 10% bovine calf serum, 1% N2 supplement, and 100 μM taurine to the DMEM/F12 medium; and from day 38 to day 56 from the start of suspension culture, suspension culture was performed using a 1:3 mixed medium of a medium obtained by adding 10% bovine calf serum, 1% N2 supplement, and 100 μM taurine to the DMEM/F12 medium and a medium obtained by adding 10% bovine calf serum, 2% B27 supplement, and 100 μM taurine to the Neurobasal medium. • [C] […]

For `N[C@@H](CC(=O)O)C(=O)O` [L-aspartic acid], the continuous epithelium rate result in experiment [1] (L-aspartic acid alone, final concentration 50 μM in culture method [B] medium) is listed as “decreased the continuous epithelium rate slightly, but the difference was not significant”. Regarding `N[C@@H](CCC(=O)O)C(=O)O` [L-glutamic acid], the continuous epithelium rate result in experiment [1] (L-glutamic acid alone, final concentration 50 μM in culture method [B] medium) is listed as “contributed to the decrease”.

Regarding `C[C@]12C[C@H](O)[C@H]3[C@@H](CCC4=CC(=O)CC[C@@]43C)[C@@H]1CC[C@@H]2C(=O)CO` [corticosterone, reference compound], the continuous epithelium rate entry in experiment [2] (final concentration 100 nM added to culture method [A] medium, vs nothing added (corticosterone)) is recorded as “increased”. On to `N[C@@H](CS)C(=O)O` [cysteine], for which, in experiment [2] (final concentration 0.22 mM in culture method [A] medium, vs nothing added), the continuous epithelium rate entry is given as “decreased”. For `O=c1[nH]cnc2nc[nH]c12` [hypoxanthine], the continuous epithelium rate result in experiment [1] (final concentration 15 μM in culture method [B] medium) is “contributed to a decrease”. In the case of `CSCC[C@H](N)C(=O)O` [methionine], in experiment [2] (final concentration 26.81 mg/L in culture method [A] medium, vs nothing added), the continuous epithelium rate result is given as “increased”.

As for `CC(=O)[C@H]1CC[C@H]2[C@@H]3CCC4=CC(=O)CC[C@]4(C)[C@H]3CC[C@]12C` [progesterone, reference compound], the continuous epithelium rate result in experiment [2] (final concentration 100 nM added to culture method [A] medium, vs nothing added (progesterone)) was “similarly decreased”. On to `Cc1cn([C@H]2C[C@H](O)[C@@H](CO)O2)c(=O)[nH]c1=O` [thymidine], for which the continuous epithelium rate result in experiment [1] (final concentration 1.5 μM in culture method [B] medium) is reported as “contributed to a decrease”.

With vitamin B12, in experiment [1] (final concentration 0.68 mg/L in culture method [B] medium), the continuous epithelium rate result was “contributed to a decrease”.
